Marks after values point to notes of the source that are not given here.
Tests used:
[1] = Safety: adverse events in patients with advanced solid tumors; format: in vivo, human
CYP3A4 [2] = target: CYP3A4 (Homo sapiens, UniProt P08684); settings: cited from earlier work
[3] = cited from earlier work
[4] = cited from earlier work; remark: listed apart in the source
[5] = phase 1 study; cited from earlier work
CYP3A4 [6] = settings: ref Eisai, data on file; cited from earlier work
[7] = safety analysis set n = 30, treatment phase

Sequence of CYP3A4 (Homo sapiens, UniProt P08684) (P08684 whole entry): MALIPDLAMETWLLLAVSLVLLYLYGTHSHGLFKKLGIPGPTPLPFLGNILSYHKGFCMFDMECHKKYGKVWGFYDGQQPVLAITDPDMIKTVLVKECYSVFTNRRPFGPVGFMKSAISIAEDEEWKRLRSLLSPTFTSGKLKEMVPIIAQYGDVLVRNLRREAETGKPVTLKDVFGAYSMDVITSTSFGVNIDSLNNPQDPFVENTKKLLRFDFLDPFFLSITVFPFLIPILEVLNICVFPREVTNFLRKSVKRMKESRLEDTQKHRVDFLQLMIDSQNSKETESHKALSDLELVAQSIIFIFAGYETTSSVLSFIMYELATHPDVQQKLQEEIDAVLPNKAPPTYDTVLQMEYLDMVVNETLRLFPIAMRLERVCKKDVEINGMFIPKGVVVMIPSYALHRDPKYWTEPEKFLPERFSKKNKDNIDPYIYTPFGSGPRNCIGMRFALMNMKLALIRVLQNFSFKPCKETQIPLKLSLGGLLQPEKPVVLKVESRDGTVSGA

COc1cc2nccc(Oc3ccc(NC(=O)NC4CC4)c(Cl)c3)c2cc1C(N)=O [lenvatinib]
Grade of treatment-related SAEs ([1]; all treatment-related SAEs): ≤ 3 grade | New AEs in the extension phase ([1]; extension phase (Eisai, data on file)): No new AEs | Patients who died during the treatment phase ([1]; grade 5 TEAE (intestinal obstruction), related to underlying colon cancer): One | Tolerability ([1]; lenvatinib 24 mg once daily, patients with advanced solid tumors): generally well tolerated | Abdominal pain upper: SAEs ([1]; safety analysis set n = 30): 1 (3.3) n (%) | Abdominal pain: SAEs ([1]; safety analysis set n = 30): 2 (6.7) n (%) | Abdominal pain: TEAEs ([1]; safety analysis set n = 30): 3 (10.0) n (%) | Asthenia: SAEs ([1]; safety analysis set n = 30): 1 (3.3) n (%) | Asthenia: TEAEs ([1]; safety analysis set n = 30): 3 (10.0) n (%) | Asthenia: treatment-related AEs ([1]; safety analysis set n = 30): 2 (6.7) n (%) | Bradycardia: SAEs ([1]; safety analysis set n = 30): 1 (3.3) n (%) | Cardiac disorders: SAEs ([1]; safety analysis set n = 30): 2 (6.7) n (%) | Cerebral hemorrhage: SAEs ([1]; safety analysis set n = 30): 1 (3.3) n (%) | Cough: TEAEs ([1]; safety analysis set n = 30): 2 (6.7) n (%) | Diarrhea: TEAEs ([1]; safety analysis set n = 30): 7 (23.3) n (%) | Diarrhea: treatment-related AEs ([1]; safety analysis set n = 30): 3 (10.0) n (%) | Dysphonia: TEAEs ([1]; safety analysis set n = 30): 2 (6.7) n (%) | Dyspnea: SAEs ([1]; safety analysis set n = 30): 1 (3.3) n (%) | Dyspnea: TEAEs ([1]; safety analysis set n = 30): 2 (6.7) n (%) | Fatigue: TEAEs ([1]; safety analysis set n = 30): 8 (26.7) n (%) | Fatigue: treatment-related AEs ([1]; safety analysis set n = 30): 5 (16.7) n (%) | Gastrointestinal disorders: SAEs ([1]; safety analysis set n = 30): 4 (13.3) n (%) | Gastrointestinal disorders: TEAEs ([1]; safety analysis set n = 30): 12 (40.0) n (%) | Gastrointestinal disorders: treatment-related AEs ([1]; safety analysis set n = 30): 6 (20.0) n (%) | General disorders: SAEs ([1]; safety analysis set n = 30): 1 (3.3) n (%) | General disorders: TEAEs ([1]; safety analysis set n = 30): 11 (36.7) n (%) | General disorders: treatment-related AEs ([1]; safety analysis set n = 30): 7 (23.3) n (%) | Headache: TEAEs ([1]; safety analysis set n = 30): 3 (10.0) n (%) | Headache: treatment-related AEs ([1]; safety analysis set n = 30): 2 (6.7) n (%) | Hypertension: SAEs ([1]; safety analysis set n = 30): 3 (10.0) n (%) | Hypertension: TEAEs ([1]; safety analysis set n = 30): 7 (23.3) n (%) | Hypertension: treatment-related AEs ([1]; safety analysis set n = 30): 6 (20.0) n (%) | Nausea: TEAEs ([1]; safety analysis set n = 30): 4 (13.3) n (%) | Nausea: treatment-related AEs ([1]; safety analysis set n = 30): 2 (6.7) n (%) | Nervous system disorders: SAEs ([1]; safety analysis set n = 30): 1 (3.3) n (%) | Nervous system disorders: TEAEs ([1]; safety analysis set n = 30): 5 (16.7) n (%) | Nervous system disorders: treatment-related AEs ([1]; safety analysis set n = 30): 2 (6.7) n (%) | Patient deaths from TEAEs: SAEs ([1]; safety analysis set n = 30): 1 (3.33) n (%) | Pyrexia: SAEs ([1]; safety analysis set n = 30): 1 (3.3) n (%) | Rectal hemorrhage: SAEs ([1]; safety analysis set n = 30): 1 (3.3) n (%) | Respiratory, thoracic, and mediastinal disorders: SAEs ([1]; safety analysis set n = 30): 1 (3.3) n (%) | Respiratory, thoracic, and mediastinal disorders: TEAEs ([1]; safety analysis set n = 30): 8 (26.7) n (%) | Stress cardiomyopathy: SAEs ([1]; safety analysis set n = 30): 1 (3.3) n (%) | Vascular disorders: SAEs ([1]; safety analysis set n = 30): 3 (10.0) n (%) | Vascular disorders: TEAEs ([1]; safety analysis set n = 30): 7 (23.3) n (%) | Vascular disorders: treatment-related AEs ([1]; safety analysis set n = 30): 6 (20.0) n (%) | Vomiting: TEAEs ([1]; safety analysis set n = 30): 2 (6.7) n (%) | Vomiting: treatment-related AEs ([1]; safety analysis set n = 30): 2 (6.7) n (%) | Patients with any TEAEs: SAEs [1, 7]: 10 (33.3) n (%) | Patients with any TEAEs: TEAEs [1, 7]: 26 (86.7) n (%) | Patients with any TEAEs: treatment-related AEs [1, 7]: 17 (56.7) n (%) | Intestinal obstruction: SAEs ([1]; safety analysis set n = 30, this SAE resulted in patient death): 1 (3.3)^c n (%) | Patients who discontinued treatment due to a TEAE ([1]; treatment phase, n = 30): 6.7% | Patients with SAEs considered treatment related ([1]; treatment phase, n = 30): Four | Patients with TEAEs leading to lenvatinib dose modification ([1]; treatment phase, n = 30): 40% | Patients with at least 1 TEAE ([1]; treatment phase, n = 30): 86.7% | Patients with dose reduction ([1]; treatment phase, n = 30): 13.3% | Patients with lenvatinib treatment interruption ([1]; treatment phase, n = 30): 26.7% | SAE abdominal pain, patients ([1]; treatment phase, n = 30): 6.7% | SAE hypertension, patients ([1]; treatment phase, n = 30): 10% | TEAE diarrhea, patients ([1]; treatment phase, n = 30): 23.3% | TEAE fatigue, patients ([1]; treatment phase, n = 30): 26.7% | TEAE hypertension, patients ([1]; treatment phase, n = 30): 23.3% | Treatment-related TEAE diarrhea, patients ([1]; treatment phase, n = 30): 10.0% | Treatment-related TEAE fatigue, patients ([1]; treatment phase, n = 30): 16.7% | Treatment-related TEAE hypertension, patients ([1]; treatment phase, n = 30): 20.0% | Effect on midazolam metabolism in physiologically based pharmacokinetic model (CYP3A4 [2]): negligible effects | Interaction with ketoconazole (inhibitor of CYP3A4) [3]: not clinically significant | tmax ([4]; after dosing): 1 to 4 h | half-life [4]: 28 h | Pharmacokinetic drug–drug interactions in combination with everolimus [5]: no significant pharmacokinetic drug–drug interactions | Action on CYP3A4 (CYP3A4 [6]): weak inducer and time-dependent inhibitor of CYP3A4

Source: paper PMC7211203 (European Journal of Drug Metabolism and Pharmacokinetics, 2020)
